Source: PMC6010064, “Discovery of curcumin inspired sulfonamide derivatives as a new class of carbonic anhydrase isoforms I, II, IX, and XII inhibitors” (Journal of Enzyme Inhibition and Medicinal Chemistry, 2017)
Where two headings read alike, the source gives them in different places.

How the values were obtained:
Experiment in all cases: stopped-flow CO2 hydrase assay
Format in all cases: biochemical
hCA I = target: T1, hCA I (Homo sapiens, UniProt P00915)
T1 construct: gene CA1; recombinant, obtained in-house as reported earlier
Source text: stopped-flow CO2 hydrase assay on hCA I

hCA XII = target: T2, hCA XII (Homo sapiens, UniProt O43570)
T2 construct: gene CA12; recombinant, obtained in-house as reported earlier
Source text: stopped-flow CO2 hydrase assay on hCA XII

hCA II = target: T3, hCA II (Homo sapiens, UniProt P00918)
T3 construct: gene CA2; recombinant, obtained in-house as reported earlier
Source text: stopped-flow CO2 hydrase assay on hCA II

hCA IX = target: T4, hCA IX (Homo sapiens, UniProt Q16790)
T4 construct: gene CA9; recombinant, obtained in-house as reported earlier
Source text: stopped-flow CO2 hydrase assay on hCA IX

[1] = pH […] Hepes […], […] Na2SO4, CO2 substrate, […] min preincubation at room temperature

T2 sequence (O43570 25-354): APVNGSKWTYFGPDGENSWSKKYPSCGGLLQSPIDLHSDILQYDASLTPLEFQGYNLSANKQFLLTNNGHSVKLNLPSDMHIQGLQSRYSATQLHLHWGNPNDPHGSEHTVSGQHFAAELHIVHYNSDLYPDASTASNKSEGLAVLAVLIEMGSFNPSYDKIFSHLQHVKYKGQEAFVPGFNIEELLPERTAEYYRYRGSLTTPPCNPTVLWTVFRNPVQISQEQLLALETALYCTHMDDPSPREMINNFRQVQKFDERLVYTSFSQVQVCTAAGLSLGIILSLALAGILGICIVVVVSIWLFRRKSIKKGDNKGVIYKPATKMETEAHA
T1 sequence (P00915 2-261): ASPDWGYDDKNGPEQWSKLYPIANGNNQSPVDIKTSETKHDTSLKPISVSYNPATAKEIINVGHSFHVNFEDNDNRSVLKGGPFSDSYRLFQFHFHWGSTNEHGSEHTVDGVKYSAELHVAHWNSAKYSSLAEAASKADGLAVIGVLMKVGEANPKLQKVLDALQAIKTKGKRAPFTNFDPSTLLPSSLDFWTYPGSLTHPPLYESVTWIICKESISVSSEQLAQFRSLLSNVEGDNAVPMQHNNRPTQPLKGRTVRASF

Row | Compound | Ki (hCA I) [nM] | Ki (hCA XII) [nM] | Ki (hCA II) [nM] | Ki (hCA IX) [nM] | Ki (hCA II; [1]) [nM] | Ki (hCA I; [1]) [nM]
1 | CC(C)Oc1ccc(/C=C/C(=O)/C=C/c2ccc(S(N)(=O)=O)cc2)cc1 [5a, 4-((1E,4E)-5-(4-isopropoxyphenyl)-3-oxopenta-1,4-dien-1-yl)benzenesulfonamide] | 417 | 6.1 | 7.9 | 2.3 | – | –
2 | COc1ccc(/C=C/C(=O)/C=C/c2ccc(S(N)(=O)=O)cc2)cc1 [5b, 4-((1E,4E)-5-(4-methoxyphenyl)-3-oxopenta-1,4-dien-1-yl)benzenesulfonamide] | 286 | 6.3 | 2.1 | 8.6 | – | –
3 | COc1ccc(/C=C/C(=O)/C=C/c2ccc(S(N)(=O)=O)cc2)c(OC)c1 [5c, 4-((1E,4E)-5-(2,4-dimethoxyphenyl)-3-oxopenta-1,4-dien-1-yl)benzenesulfonamide] | 848 | 7.4 | 4.7 | 7.5 | – | –
4 | COc1ccc(OC)c(/C=C/C(=O)/C=C/c2ccc(S(N)(=O)=O)cc2)c1 [5d, 4-((1E,4E)-5-(2,5-dimethoxyphenyl)-3-oxopenta-1,4-dien-1-yl)benzenesulfonamide] | 704 | 8.1 | – | 8.4 | 0.89 | –
5 | COc1ccc(/C=C/C(=O)/C=C/c2ccc(S(N)(=O)=O)cc2)cc1OC [5e, 4-((1E,4E)-5-(3,4-dimethoxyphenyl)-3-oxopenta-1,4-dien-1-yl)benzenesulfonamide] | 295 | 52.2 | – | 2.3 | 0.75 | –
6 | COc1ccc(/C=C/C(=O)/C=C/c2ccc(S(N)(=O)=O)cc2)c(OC)c1OC [5f, 4-((1E,4E)-3-oxo-5-(2,3,4-trimethoxyphenyl)penta-1,4-dien-1-yl)benzenesulfonamide] | – | 71.8 | 3 | 2.4 | – | 192
7 | COc1cc(OC)c(/C=C/C(=O)/C=C/c2ccc(S(N)(=O)=O)cc2)c(OC)c1 [5g, 4-((1E,4E)-3-oxo-5-(2,4,6-trimethoxyphenyl)penta-1,4-dien-1-yl)benzenesulfonamide] | 904 | 7.4 | 0.87 | 2.4 | – | –
8 | COc1cc(/C=C/C(=O)/C=C/c2ccc(S(N)(=O)=O)cc2)cc(OC)c1OC [5h, 4-((1E,4E)-3-oxo-5-(3,4,5-trimethoxyphenyl)penta-1,4-dien-1-yl)benzenesulfonamide] | 595 | 25 | 8.8 | 7.8 | – | –
9 | NS(=O)(=O)c1ccc(/C=C/C(=O)/C=C/c2ccc(Cl)cc2)cc1 [5i, 4-((1E,4E)-5-(4-chlorophenyl)-3-oxopenta-1,4-dien-1-yl)benzenesulfonamide] | 373 | 31.1 | 8.1 | 87.3 | – | –
10 | COc1ccc(/C=C/C(=O)/C=C/c2ccc(S(N)(=O)=O)cc2)c(F)c1 [5j, 4-((1E,4E)-5-(2-fluoro-4-methoxyphenyl)-3-oxopenta-1,4-dien-1-yl)benzenesulfonamide] | 246 | 68 | 8.2 | 61 | – | –
